This note sets out measurements from PubChem BioAssay AID330 (DTP/NCI, 2004).

Values joined by “and” are separate entries in the source; they are usually repeats but may differ in a detail not shown here. Equal values may be shown once. Inconclusive results and toxic doses are left out. Numbered stars: 1 amine (or outer) side, 2 acyl side, 3 side chain; on linkers, the order of the positions; unused ones are H or OH. Bridge positions count the residues as written; N and C are the ends. Square brackets hold non-standard residues; d marks the D form. Peptide text beside a SMILES is read from it. * marks the point of attachment. ξ: configuration not given here. ξOrn(4,5-diOH) = O=C(C(CC(O)C(O)N[*:3])N[*:1])[*:2]; ξhTyr(βξ-OH,γξ-OH) = NC(C(=O)O)C(O)C(O)c1ccc(O)cc1; ξPro(3ξ-OH,4ξ-Me) = CC1CNC(C(=O)O)C1O; X22 = CCCCC/C=C/C/C=C\CCCCCCCC(=O)*; Hyp = O=C(O)[CH]1C[CH](O)CN1

The assay relates to P388 leukemia ip, CD2F1 mice, survival T/C. As to the kind of experiment: NCI In Vivo Anticancer Drug Screen. Data for tumor model P388 Leukemia (intraperitoneal) in CD2F1 (CDF1) mice. Particulars: endpoint: median survival time, higher = longer survival. In outline:
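Mice carrying the transplanted tumor received test compound or vehicle. Survival was recorded in each group, and the value is the treated-group measurement divided by that of the vehicle-treated control group.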

[1] abbreviates: dose: 400.0 mg/kg/injection, schedule: Q04DX003 (ip), vehicle: saline.
[2] abbreviates: dose: 100.0 mg/kg/injection, schedule: Q01DX001 (ip), vehicle: Klucel (hydroxypropylcellulose) (HPC).
[3] abbreviates: dose: 200.0 mg/kg/injection, schedule: Q01DX001 (ip), vehicle: Klucel (hydroxypropylcellulose) (HPC).
[4] abbreviates: dose: 400.0 mg/kg/injection, schedule: Q01DX001 (ip), vehicle: Klucel (hydroxypropylcellulose) (HPC).
Where [5] appears, read: dose: 50.0 mg/kg/injection, schedule: Q01DX005 (ip), vehicle: saline with Tween-80.
Where [6] appears, read: dose: 100.0 mg/kg/injection, schedule: Q01DX005 (ip), vehicle: saline with Tween-80.
The mark [7] stands for this setting: dose: 200.0 mg/kg/injection, schedule: Q01DX005 (ip), vehicle: saline with Tween-80.
[8] abbreviates: dose: 50.0 mg/kg/injection, schedule: Q01DX009 (ip), vehicle: saline.
The mark [9] stands for this setting: dose: 50.0 mg/kg/injection, schedule: Q01DX009 (ip), vehicle: saline with Tween-80.
Setting [10] is: dose: 200.0 mg/kg/injection, schedule: Q01DX009 (ip), vehicle: saline with Tween-80.

Regarding `CCOP(=O)(O)C1CCCC(C)[N-]1.CCOP(=O)(O)C1CCCC(C)[N-]1.CCOP(=O)(O)C1CCCC(C)[N-]1.[Fe+3]` (stereo unspecified), the T/C was 91 % of control (dose: 12.5 mg/kg/injection, schedule: Q04DX003 (ip), vehicle: saline); 95 % of control (dose: 25.0 mg/kg/injection, schedule: Q04DX003 (ip), vehicle: saline); 94 % of control (dose: 50.0 mg/kg/injection, schedule: Q04DX003 (ip), vehicle: saline); 86 % of control under setting [1].
On to `O=C1C2CCC(N1c1ccc(F)cc1)n1c(=O)n(-c3ccccc3)c(=O)n12` (stereo unspecified), for which the T/C is 104 % of control under setting [2], 94 % of control under setting [3] and 100 % of control under setting [4].
`CSCC[C@@H]1C(=O)N(C)[C@H](C(C)(C)C)N1C(=O)c1ccccc1`: the T/C is 100 % of control (dose: 60.0 mg/kg/injection, schedule: Q01DX005 (ip), vehicle: saline with Tween-80); 100 % of control (dose: 120.0 mg/kg/injection, schedule: Q01DX005 (ip), vehicle: saline with Tween-80); 97 % of control (dose: 240.0 mg/kg/injection, schedule: Q01DX005 (ip), vehicle: saline with Tween-80).
As to `N#CN=C(N)N=P(c1ccccc1)(c1ccccc1)c1ccccc1`, the T/C under setting [2] was 97 % of control, the T/C under setting [3] was 100 % of control and the T/C under setting [4] was 91 % of control.
Consider `CC1(C)N=C(N)N=C(N)N1c1ccc(CNC(=O)Nc2ccc(S(=O)(=O)F)cc2)cc1`, for which the T/C was 172 % of control (dose: 100.0 mg/kg/injection, schedule: Q04DX003 (ip), vehicle: saline); 181 % of control (dose: 200.0 mg/kg/injection, schedule: Q04DX003 (ip), vehicle: saline); 90 % of control under setting [1].
On to `COc1ccc2c(=O)c(Cc3c[nH]c4ccccc34)coc2c1`, for which the T/C was 100 % of control (dose: 7.5 mg/kg/injection, schedule: Q01DX005 (ip), vehicle: saline with Tween-80); 93 % of control (dose: 15.0 mg/kg/injection, schedule: Q01DX005 (ip), vehicle: saline with Tween-80); 86 % of control (dose: 30.0 mg/kg/injection, schedule: Q01DX005 (ip), vehicle: saline with Tween-80).
Take `Oc1ccc(/C=C/c2cc(O)cc3c2C(c2cc(O)cc(O)c2)C(c2ccc(O)c(O)c2)O3)cc1` (stereo unspecified): the T/C is 94 % of control (dose: 7.5 mg/kg/injection, schedule: Q01DX001 (ip), vehicle: Klucel + Tween-80); 94 % of control (dose: 15.0 mg/kg/injection, schedule: Q01DX001 (ip), vehicle: Klucel + Tween-80); 103 % of control (dose: 30.0 mg/kg/injection, schedule: Q01DX001 (ip), vehicle: Klucel + Tween-80).
On to `CC(C(=O)S)C(O)(c1ccccc1)c1ccccc1` (stereo unspecified), for which the T/C was 98 % of control (dose: 25.0 mg/kg/injection, schedule: Q04DX003 (ip), vehicle: Klucel (hydroxypropylcellulose) (HPC)); 101 % of control (dose: 50.0 mg/kg/injection, schedule: Q04DX003 (ip), vehicle: Klucel (hydroxypropylcellulose) (HPC)); 107 % of control and 93 % of control (dose: 100.0 mg/kg/injection, schedule: Q04DX003 (ip), vehicle: Klucel (hydroxypropylcellulose) (HPC)).
Regarding `C/C=C1/CN2CCC34c5ccccc5N5C(=O)C(C6CC78c9ccccc9N9C(=O)C=CC(C%10CC7N6C/C%10=C/C)C98)=CC(C1CC23)C54` (stereo unspecified), the T/C runs as follows: (dose: 10.0 mg/kg/injection, schedule: Q01DX009 (ip), vehicle: saline with Tween-80) 99 % of control; (dose: 20.0 mg/kg/injection, schedule: Q01DX009 (ip), vehicle: saline with Tween-80) 104 % of control; (dose: 40.0 mg/kg/injection, schedule: Q01DX009 (ip), vehicle: saline with Tween-80) 104 % of control; (dose: 80.0 mg/kg/injection, schedule: Q01DX009 (ip), vehicle: saline with Tween-80) 88 % of control.
On to `COC(=O)C1Cc2cocc2CC(C(=O)OC)N1C(=O)OC(C)(C)C` (stereo unspecified), for which the T/C (dose: 8.75 mg/kg/injection, schedule: Q01DX005 (ip), vehicle: Klucel (hydroxypropylcellulose) (HPC)) is 99 % of control; the T/C (dose: 17.5 mg/kg/injection, schedule: Q01DX005 (ip), vehicle: Klucel (hydroxypropylcellulose) (HPC)) was 101 % of control; the T/C (dose: 35.0 mg/kg/injection, schedule: Q01DX005 (ip), vehicle: Klucel (hydroxypropylcellulose) (HPC)) is 99 % of control.
For `CCCCC/C=C/C/C=C\CCCCCCCC(=O)NC1CC(O)C(O)NC(=O)C2C(O)C(C)CN2C(=O)C(C(C)O)NC(=O)C(C(O)C(O)c2ccc(O)cc2)NC(=O)C2CC(O)CN2C(=O)C(C(C)O)NC1=O` (stereo not drawn) (X22-[ξOrn(4,5-diOH)]T[Hyp][ξhTyr(βξ-OH,γξ-OH)]T[ξPro(3ξ-OH,4ξ-Me)]; lactam 1-C; configuration not given here), the T/C was 100 % of control (dose: 0.25 mg/kg/injection, schedule: Q01DX009 (ip), vehicle: lactate) and 104 % of control (dose: 0.5 mg/kg/injection, schedule: Q01DX009 (ip), vehicle: lactate).
As for `CC1C(O)C(C)C(c2ccccc2)N(C)C1c1ccccc1` (stereo unspecified), the T/C under setting [5] is 100 % of control, the T/C under setting [6] was 106 % of control and the T/C under setting [7] is 106 % of control.
Turning to `Nc1ccccc1C(=O)NCCc1c[nH]c2ccccc12`, the T/C runs as follows: under setting [5], 99 % of control; under setting [6], 107 % of control; under setting [7], 107 % of control.
As for `NCC(=O)c1ccc(O)c(O)c1`, the T/C (dose: 25.0 mg/kg/injection, schedule: Q01DX009 (ip), vehicle: saline) was 100 % of control; the T/C (dose: 25.0 mg/kg/injection, schedule: Q04DX003 (ip), vehicle: saline with Tween-80) was 108 % of control; the T/C under setting [8] is 113 % of control; the T/C (dose: 50.0 mg/kg/injection, schedule: Q04DX003 (ip), vehicle: saline with Tween-80) was 108 % of control; the T/C (dose: 100.0 mg/kg/injection, schedule: Q04DX003 (ip), vehicle: saline with Tween-80) is 104 % of control and 121 % of control.
`COc1ccc(CCCNC(=O)Cc2ccccc2)cc1OC`: the T/C was 92 % of control under setting [9]; 92 % of control (dose: 100.0 mg/kg/injection, schedule: Q01DX009 (ip), vehicle: saline with Tween-80); 91 % of control under setting [10].
Turning to `O=C1OC(Cl)C=C1c1ccccc1` (stereo unspecified), the T/C is, setting by setting: (dose: 50.0 mg/kg/injection, schedule: Q01DX009 (ip), vehicle: suspension in saline) 95 % of control; (dose: 100.0 mg/kg/injection, schedule: Q01DX009 (ip), vehicle: suspension in saline) 101 % of control; (dose: 200.0 mg/kg/injection, schedule: Q01DX009 (ip), vehicle: suspension in saline) 101 % of control.
For `CC(N)CN1C=NC(C)C1` (stereo unspecified), the T/C is 97 % of control under setting [8]; 103 % of control (dose: 100.0 mg/kg/injection, schedule: Q01DX009 (ip), vehicle: saline); 94 % of control (dose: 200.0 mg/kg/injection, schedule: Q01DX009 (ip), vehicle: saline).
As to `COc1ccc2c(c1)CCC1(C)CC(=O)C(Br)=C21` (stereo unspecified), the T/C is 109 % of control and 112 % of control and 114 % of control (dose: 6.25 mg/kg/injection, schedule: Q01DX009 (ip), vehicle: Klucel (hydroxypropylcellulose) (HPC)); 100 % of control and 107 % of control and 114 % of control (dose: 12.5 mg/kg/injection, schedule: Q01DX009 (ip), vehicle: Klucel (hydroxypropylcellulose) (HPC)); 102 % of control and 107 % of control (dose: 25.0 mg/kg/injection, schedule: Q01DX009 (ip), vehicle: Klucel (hydroxypropylcellulose) (HPC)); 106 % of control (dose: 50.0 mg/kg/injection, schedule: Q01DX009 (ip), vehicle: Klucel (hydroxypropylcellulose) (HPC)).
For `CCOC(=O)C(O)Cc1cnc2ccccc2n1` (stereo unspecified), the T/C was 108 % of control under setting [5], 108 % of control under setting [6] and 100 % of control under setting [7].
`CC(C)Nc1nc(NCC2CC2)nc(ON2C(=O)CCC2=O)n1`: the T/C (dose: 12.5 mg/kg/injection, schedule: Q01DX009 (ip), vehicle: saline with Tween-80) was 100 % of control; the T/C (dose: 25.0 mg/kg/injection, schedule: Q01DX009 (ip), vehicle: saline with Tween-80) was 99 % of control; the T/C under setting [9] is 100 % of control and 86 % of control; the T/C under setting [10] was 104 % of control.
With `O=C1C2CCCN2C(=O)N1c1ccc([N+](=O)[O-])cc1` (stereo unspecified), the T/C reads like this: under setting [2], 97 % of control; under setting [3], 97 % of control; under setting [4], 99 % of control.
Turning to `CC(O)C(=O)NCCO` (stereo unspecified), the T/C is, setting by setting: (dose: 50.0 mg/kg/injection, schedule: Q01DX005 (ip), vehicle: saline) 99 % of control; (dose: 100.0 mg/kg/injection, schedule: Q01DX005 (ip), vehicle: saline) 93 % of control; (dose: 200.0 mg/kg/injection, schedule: Q01DX005 (ip), vehicle: saline) 100 % of control.
